Laboratory results taken from paper PMC2733882, “Structure of Hordeum vulgare NADPH-dependent thioredoxin reductase 2. Unwinding the reaction mechanism” (Acta Crystallographica Section D: Biological Crystallography, 2009).

Tests used:
HvNTR2 [1] = target: T1, HvNTR2 (Hordeum vulgare, UniProt A9LN30); test: X-ray crystal structure, […] A; format: binding; conditions: crystals pH 3.5, 0.1 M citrate; one FAD per subunit in FAD domain, tightly bound
T1 construct: gene NTR2; recombinant, E. coli Rosetta (DE3); FAD domain 1-126 and 255-331, NADPH domain 127-254; model residues 6-323 (A), 5-323 (B); homodimer
T1 sequence (A9LN30 1-331): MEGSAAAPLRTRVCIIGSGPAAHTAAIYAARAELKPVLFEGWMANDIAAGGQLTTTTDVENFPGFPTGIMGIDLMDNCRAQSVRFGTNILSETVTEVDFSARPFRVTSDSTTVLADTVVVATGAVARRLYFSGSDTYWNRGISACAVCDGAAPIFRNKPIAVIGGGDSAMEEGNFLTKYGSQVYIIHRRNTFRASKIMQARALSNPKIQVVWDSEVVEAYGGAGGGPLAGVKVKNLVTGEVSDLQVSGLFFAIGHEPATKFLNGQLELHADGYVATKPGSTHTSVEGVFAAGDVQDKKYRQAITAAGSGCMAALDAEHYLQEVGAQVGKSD

HvNTR2 [2] = target: T1, HvNTR2; test: bleaching of yellow HvNTR2 crystals (FAD reduction); format: biochemical; conditions: 10 mM NADPH, 30 min, in crystals; NADPH not seen in the structure

## Cc1cc2nc3c(=O)[nH]c(=O)nc-3n(C[C@H](O)[C@H](O)[C@H](O)COP(=O)(O)OP(=O)(O)OC[C@H]3O[C@@H](n4cnc5c(N)ncnc54)[C@H](O)[C@@H]3O)c2cc1C [FAD]
HvNTR2 [1]
  X-ray crystal structure, 2.6 A: One FAD molecule with well defined electron density

## NC(=O)C1=CN([C@@H]2O[C@H](COP(=O)(O)OP(=O)(O)OC[C@H]3O[C@@H](n4cnc5c(N)ncnc54)[C@H](OP(=O)(O)O)[C@@H]3O)[C@@H](O)[C@H]2O)C=CC1 [NADPH]
HvNTR2 [2]
  bleaching of yellow HvNTR2 crystals (FAD reduction): FAD can still be reduced by NADPH as judged from the bleaching
